Source: the NIST ThermoML archive (doi:10.1021/acs.jced.5b00838)
Numbers after ± are expanded uncertainties.

Key:
[1] = 101.33 kPa, Liquid, Vibrating tube method
[2] = excess molar enthalpy (molar enthalpy of mixing); xn = mol fraction of the nth substance listed; conditions: 298.15 K, 100 kPa, Liquid, isothermal titration calorimetry

CC#N [acetonitrile]
[1]
Conditions | mass density [kg/m3]
298.15 K | 776.51 ± 1.6
303.15 K | 771.06 ± 1.6
308.15 K | 765.59 ± 1.5
313.15 K | 760.1 ± 1.5
318.15 K | 754.56 ± 1.5
323.15 K | 748.99 ± 1.5

CCCCOCC(C)C [butyl isobutyl ether]
[1]
Conditions | mass density [kg/m3]
288.15 K | 764.07 ± 1.6
293.15 K | 759.72 ± 1.5
298.15 K | 755.31 ± 1.5
303.15 K | 750.87 ± 1.5
308.15 K | 746.45 ± 1.5
313.15 K | 741.98 ± 1.5
318.15 K | 737.58 ± 1.5
323.15 K | 732.99 ± 1.5

CCCCOCC(C)C [butyl isobutyl ether] + CC#N
[2]
Conditions | excess molar enthalpy [kcal/mol]
x2 = 0.0314 | 0.0454 ± 0.000717
x2 = 0.061 | 0.0839 ± 0.00117
x2 = 0.0887 | 0.116 ± 0.00153
x2 = 0.1149 | 0.143 ± 0.00186
x2 = 0.1396 | 0.167 ± 0.00215
x2 = 0.1851 | 0.204 ± 0.00263
x2 = 0.2261 | 0.233 ± 0.00287
x2 = 0.2631 | 0.255 ± 0.00335
x2 = 0.2967 | 0.273 ± 0.00335
x2 = 0.3275 | 0.286 ± 0.00359
x2 = 0.3815 | 0.302 ± 0.00382
x2 = 0.4274 | 0.31 ± 0.00382
x2 = 0.4671 | 0.315 ± 0.00406
x2 = 0.5097 | 0.317 ± 0.00406
x2 = 0.5459 | 0.316 ± 0.00406
x2 = 0.5772 | 0.311 ± 0.00382
x2 = 0.6045 | 0.308 ± 0.00382
x2 = 0.6329 | 0.301 ± 0.00382
x2 = 0.6575 | 0.295 ± 0.00382
x2 = 0.6789 | 0.289 ± 0.00359
x2 = 0.7009 | 0.282 ± 0.00359
x2 = 0.7183 | 0.275 ± 0.00359
x2 = 0.72 | 0.275 ± 0.00359
x2 = 0.7368 | 0.268 ± 0.00335
x2 = 0.7392 | 0.267 ± 0.00335
x2 = 0.7517 | 0.261 ± 0.00335
x2 = 0.7613 | 0.256 ± 0.00335
x2 = 0.765 | 0.254 ± 0.00311
x2 = 0.7847 | 0.242 ± 0.00311
x2 = 0.8097 | 0.226 ± 0.00287
x2 = 0.8362 | 0.207 ± 0.00263
x2 = 0.853 | 0.193 ± 0.00239
x2 = 0.8705 | 0.177 ± 0.00227
x2 = 0.8887 | 0.158 ± 0.00206
x2 = 0.9077 | 0.137 ± 0.00179
x2 = 0.9275 | 0.112 ± 0.00151
x2 = 0.9411 | 0.0935 ± 0.00129
x2 = 0.9552 | 0.073 ± 0.00105
x2 = 0.9697 | 0.0503 ± 0.000789
x2 = 0.9846 | 0.0253 ± 0.00055
